Measurements from ChEMBL document CHEMBL3822442, “Synthesis and Pharmacological Characterization of Novel Glucagon-like Peptide-2 (GLP-2) Analogues with Low Systemic Clearance” (J Med Chem, 2016).
The source made the active and inactive calls. The calls are words filed in the database; no cut-off is given here.

How the values were obtained:
[1] = target: T1, Glucagon-like peptide 1 receptor (Homo sapiens, UniProt P43220); assay: Agonist activity at human GLP1R expressed in HEK293 cells after 5 hrs by luciferase reporter gene assay; assay type: cell-based
[2] = target: Glucagon receptor (Homo sapiens) (UniProt P47871); assay: Agonist activity at human GCGR expressed in HEK293 cells after 5 hrs by luciferase reporter gene assay; assay type: cell-based
[3] = target: T1, Glucagon-like peptide 1 receptor; assay: Agonist activity at human GLP1R expressed in HEK293 cells at 30 nM after 5 hrs by luciferase reporter gene assay; assay type: cell-based
[4] = target: T2, Glucagon-like peptide 2 receptor (Homo sapiens, UniProt O95838); assay: Agonist activity at human GLP2R expressed in HEK293 cells after 5 hrs by luciferase reporter gene assay; assay type: cell-based
T2 sequence (O95838 whole entry): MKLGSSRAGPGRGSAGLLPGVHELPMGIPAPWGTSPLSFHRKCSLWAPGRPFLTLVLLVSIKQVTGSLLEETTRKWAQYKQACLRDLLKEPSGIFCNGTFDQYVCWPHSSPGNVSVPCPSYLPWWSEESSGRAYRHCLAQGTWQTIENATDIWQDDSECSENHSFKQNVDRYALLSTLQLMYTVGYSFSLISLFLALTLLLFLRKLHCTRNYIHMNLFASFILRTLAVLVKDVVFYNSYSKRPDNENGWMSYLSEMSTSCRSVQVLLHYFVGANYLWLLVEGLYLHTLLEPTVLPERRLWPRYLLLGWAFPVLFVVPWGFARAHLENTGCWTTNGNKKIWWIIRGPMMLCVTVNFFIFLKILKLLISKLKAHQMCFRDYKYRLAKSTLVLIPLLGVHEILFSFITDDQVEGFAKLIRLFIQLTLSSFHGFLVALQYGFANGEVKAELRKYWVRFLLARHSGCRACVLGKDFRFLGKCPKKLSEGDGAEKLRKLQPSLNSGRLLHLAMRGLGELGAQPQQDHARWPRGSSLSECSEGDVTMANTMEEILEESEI

[5] = system: HEK293; assay: Selectivity ratio of EC50 for human GLP1R expressed in HEK293 cells to EC50 for human GLP2R expressed in HEK293; assay type: cell-based
[6] = target: T3, Glucagon-like peptide 2 receptor (Homo sapiens) (UniProt O95838); assay: Potency index, ratio of compound EC50 to compound 2 EC50 for human GLP2R expressed in HEK293 cells; assay type: cell-based
T3 sequence (whole entry): T2 sequence (O95838 whole entry)

[7] = Systemic clearance in Sprague-Dawley rat at 0.2 mg/kg, iv through cassette dosing measured up to 300 mins by LC/MS/MS analysis; assay type: ADME, organism-based; settings: in vivo

Sequence of Glucagon receptor (Homo sapiens) (P47871 whole entry): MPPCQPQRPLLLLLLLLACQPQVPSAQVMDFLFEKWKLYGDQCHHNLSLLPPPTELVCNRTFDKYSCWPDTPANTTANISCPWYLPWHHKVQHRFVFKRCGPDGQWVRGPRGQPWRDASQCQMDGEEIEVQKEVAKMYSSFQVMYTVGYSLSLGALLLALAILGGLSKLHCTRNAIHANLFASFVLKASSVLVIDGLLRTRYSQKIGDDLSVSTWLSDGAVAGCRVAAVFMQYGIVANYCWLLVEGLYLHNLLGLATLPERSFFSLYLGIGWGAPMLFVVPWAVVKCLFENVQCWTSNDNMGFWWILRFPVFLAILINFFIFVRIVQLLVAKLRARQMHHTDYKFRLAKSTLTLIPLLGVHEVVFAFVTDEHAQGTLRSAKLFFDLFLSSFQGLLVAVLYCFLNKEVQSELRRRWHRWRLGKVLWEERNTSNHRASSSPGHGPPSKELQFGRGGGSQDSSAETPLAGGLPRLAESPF
T1 sequence (P43220 whole entry): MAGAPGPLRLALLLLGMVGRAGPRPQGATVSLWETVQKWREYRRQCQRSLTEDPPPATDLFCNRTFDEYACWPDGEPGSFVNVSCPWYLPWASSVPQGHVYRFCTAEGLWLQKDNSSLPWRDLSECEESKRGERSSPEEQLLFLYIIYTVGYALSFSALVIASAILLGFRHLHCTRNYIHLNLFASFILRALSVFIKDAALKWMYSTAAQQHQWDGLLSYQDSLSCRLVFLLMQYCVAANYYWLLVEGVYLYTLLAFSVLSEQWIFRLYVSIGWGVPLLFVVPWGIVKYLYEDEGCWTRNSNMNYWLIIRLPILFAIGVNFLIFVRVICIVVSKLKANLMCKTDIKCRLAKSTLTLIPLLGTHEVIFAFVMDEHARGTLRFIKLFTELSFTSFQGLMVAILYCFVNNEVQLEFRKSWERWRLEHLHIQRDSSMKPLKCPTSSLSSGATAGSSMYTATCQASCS

EC50 [1] | Activity [2] | Efficacy [3] | EC50 [4] | Ratio EC50 [6] | clearance [7] | Compound | Ratio EC50 [5]
> 1000 nM | inactive |  | 14 nM | 64 |  | CCCCC(NC(=O)[C@H](CCC(=O)O)NC(=O)[C@H](CC(=O)O)NC(=O)[C@H](CO)NC(=O)[C@H](Cc1ccccc1)NC(=O)[C@H](CO)NC(=O)CNC(=O)[C@H](CC(=O)O)NC(=O)CNC(=O)[C@@H](N)Cc1cnc[nH]1)C(=O)N[C@@H](CC(N)=O)C(=O)N[C@H](C(=O)N[C@H](C(=O)N[C@@H](CC(C)C)C(=O)N[C@@H](CC(=O)O)C(=O)N[C@@H](CC(N)=O)C(=O)N[C@@H](CC(C)C)C(=O)N[C@@H](C)C(=O)N[C@H](C)C(=O)N[C@@H](CCCNC(=N)N)C(=O)N[C@@H](CC(=O)O)C(=O)N[C@@H](Cc1ccccc1)C(=O)N[C@H](C(=O)N[C@@H](CC(N)=O)C(=O)N[C@@H](Cc1c[nH]c2ccccc12)C(=O)N[C@@H](CC(C)C)C(=O)N[C@H](C(=O)N[C@@H](CCC(N)=O)C(=O)N[C@H](C(=O)N[C@@H](CCCCN)C(N)=O)[C@@H](C)O)[C@@H](C)CC)[C@@H](C)CC)[C@@H](C)CC)[C@@H](C)O (stereo not given in full) | > 71
> 1000 nM |  |  | 0.22 nM | 2.4 | 20 mL/min/kg | H-HGDGSFSDEMNTILDNLAARDFINWLIQTK-NH2 | > 4500
> 1000 nM | inactive |  | 0.23 nM | 1 |  | CCCC[C@@H](NC(=O)[C@H](CCC(=O)O)NC(=O)[C@H](CC(=O)O)NC(=O)[C@H](CO)NC(=O)[C@H](Cc1ccccc1)NC(=O)[C@H](CO)NC(=O)CNC(=O)[C@H](CC(=O)O)NC(=O)CNC(=O)[C@@H](N)Cc1cnc[nH]1)C(=O)N[C@@H](CC(N)=O)C(=O)N[C@H](C(=O)N[C@H](C(=O)N[C@@H](CC(C)C)C(=O)N[C@@H](CC(=O)O)C(=O)N[C@@H](CC(N)=O)C(=O)N[C@@H](CC(C)C)C(=O)N[C@@H](C)C(=O)N[C@@H](C)C(=O)N[C@@H](CCCNC(=N)N)C(=O)N[C@@H](CC(=O)O)C(=O)N[C@@H](Cc1ccccc1)C(=O)N[C@H](C(=O)N[C@@H](CC(N)=O)C(=O)N[C@@H](Cc1c[nH]c2ccccc12)C(=O)N[C@@H](CC(C)C)C(=O)N[C@H](C(=O)N[C@@H](CCC(N)=O)C(=O)N[C@H](C(=O)N[C@@H](CCCCN)C(N)=O)[C@@H](C)O)[C@@H](C)CC)[C@@H](C)CC)[C@@H](C)CC)[C@@H](C)O | > 4300

Further lines, the compound ahead of its results:

Compound | EC50 [1] | Activity [2] | Efficacy [3] | EC50 [4] | Ratio EC50 [6] | clearance [7] | Ratio EC50 [5]
CCCCC(NC(=O)[C@H](CCC(=O)O)NC(=O)[C@H](CC(=O)O)NC(=O)[C@H](CO)NC(=O)[C@H](Cc1ccccc1)NC(=O)[C@H](CO)NC(=O)CNC(=O)[C@H](CC(=O)O)NC(=O)CNC(=O)[C@@H](N)Cc1cnc[nH]1)C(=O)N[C@@H](CC(C)C)C(=O)N[C@H](C(=O)N[C@H](C(=O)N[C@@H](CC(C)C)C(=O)N[C@@H](CC(=O)O)C(=O)N[C@@H](CC(N)=O)C(=O)N[C@@H](CC(C)C)C(=O)N[C@@H](C)C(=O)N[C@@H](C)C(=O)N[C@@H](CCCNC(=N)N)C(=O)N[C@@H](CC(=O)O)C(=O)N[C@@H](Cc1ccccc1)C(=O)N[C@H](C(=O)N[C@@H](CC(N)=O)C(=O)N[C@@H](Cc1c[nH]c2ccccc12)C(=O)N[C@@H](CC(C)C)C(=O)N[C@H](C(=O)N[C@@H](CCC(N)=O)C(=O)N[C@H](C(=O)N[C@@H](CCCCN)C(N)=O)[C@@H](C)O)[C@@H](C)CC)[C@@H](C)CC)[C@@H](C)CC)[C@@H](C)O (stereo not given in full) | 180 nM | inactive | 44% | 0.15 nM |  |  | 
CCCCC(NC(=O)[C@H](CCC(=O)O)NC(=O)[C@H](CC(=O)O)NC(=O)[C@H](CO)NC(=O)[C@H](Cc1ccccc1)NC(=O)[C@H](CO)NC(=O)CNC(=O)[C@H](CC(=O)O)NC(=O)CNC(=O)[C@@H](N)Cc1cnc[nH]1)C(=O)N[C@@H](CC(N)=O)C(=O)N[C@H](C(=O)N[C@H](C(=O)N[C@@H](CC(C)C)C(=O)N[C@@H](CC(=O)O)C(=O)N[C@@H](CC(N)=O)C(=O)N[C@@H](CC(C)C)C(=O)N[C@@H](C)C(=O)N[C@@H](C)C(=O)N[C@H](CCCNC(=N)N)C(=O)N[C@@H](CC(=O)O)C(=O)N[C@@H](Cc1ccccc1)C(=O)N[C@H](C(=O)N[C@@H](CC(N)=O)C(=O)N[C@@H](Cc1c[nH]c2ccccc12)C(=O)N[C@@H](CC(C)C)C(=O)N[C@H](C(=O)N[C@@H](CCC(N)=O)C(=O)N[C@H](C(=O)N[C@@H](CCCCN)C(N)=O)[C@@H](C)O)[C@@H](C)CC)[C@@H](C)CC)[C@@H](C)CC)[C@@H](C)O (stereo not given in full) | > 1000 nM | inactive |  | 2.2 nM | 10 |  | > 450
CCCCC(NC(=O)[C@H](CCC(=O)O)NC(=O)[C@H](CC(=O)O)NC(=O)[C@H](CO)NC(=O)[C@H](Cc1ccccc1)NC(=O)[C@H](CO)NC(=O)CNC(=O)[C@H](CC(=O)O)NC(=O)CNC(=O)[C@@H](N)Cc1cnc[nH]1)C(=O)N[C@H](CC(N)=O)C(=O)N[C@H](C(=O)N[C@H](C(=O)N[C@@H](CC(C)C)C(=O)N[C@@H](CC(=O)O)C(=O)N[C@@H](CC(N)=O)C(=O)N[C@@H](CC(C)C)C(=O)N[C@@H](C)C(=O)N[C@@H](C)C(=O)N[C@@H](CCCNC(=N)N)C(=O)N[C@@H](CC(=O)O)C(=O)N[C@@H](Cc1ccccc1)C(=O)N[C@H](C(=O)N[C@@H](CC(N)=O)C(=O)N[C@@H](Cc1c[nH]c2ccccc12)C(=O)N[C@@H](CC(C)C)C(=O)N[C@H](C(=O)N[C@@H](CCC(N)=O)C(=O)N[C@H](C(=O)N[C@@H](CCCCN)C(N)=O)[C@@H](C)O)[C@@H](C)CC)[C@@H](C)CC)[C@@H](C)CC)[C@@H](C)O (stereo not given in full) | > 1000 nM | inactive |  | 0.16 nM | 0.73 |  | > 6200
CCCCC(NC(=O)[C@H](CCC(=O)O)NC(=O)[C@H](CC(=O)O)NC(=O)[C@H](CO)NC(=O)[C@H](Cc1ccccc1)NC(=O)[C@H](CO)NC(=O)CNC(=O)[C@H](CC(=O)O)NC(=O)CNC(=O)[C@@H](N)Cc1cnc[nH]1)C(=O)N[C@@H](CC(N)=O)C(=O)N[C@H](C(=O)N[C@H](C(=O)N[C@H](CC(C)C)C(=O)N[C@@H](CC(=O)O)C(=O)N[C@@H](CC(N)=O)C(=O)N[C@@H](CC(C)C)C(=O)N[C@@H](C)C(=O)N[C@@H](C)C(=O)N[C@@H](CCCNC(=N)N)C(=O)N[C@@H](CC(=O)O)C(=O)N[C@@H](Cc1ccccc1)C(=O)N[C@H](C(=O)N[C@@H](CC(N)=O)C(=O)N[C@@H](Cc1c[nH]c2ccccc12)C(=O)N[C@@H](CC(C)C)C(=O)N[C@H](C(=O)N[C@@H](CCC(N)=O)C(=O)N[C@H](C(=O)N[C@@H](CCCCN)C(N)=O)[C@@H](C)O)[C@@H](C)CC)[C@@H](C)CC)[C@@H](C)CC)[C@@H](C)O (stereo not given in full) | > 1000 nM | inactive |  | 8.9 nM | 40 |  | > 110
CC[C@H](C)[C@H](NC(=O)[C@H](Cc1ccccc1)NC(=O)[C@H](CC(=O)O)NC(=O)[C@H](CCCNC(=N)N)NC(=O)[C@H](C)NC(=O)[C@H](C)NC(=O)[C@H](CC(C)C)NC(=O)[C@H](CC(N)=O)NC(=O)[C@H](CC(=O)O)NC(=O)[C@H](CC(C)C)NC(=O)[C@@H](NC(=O)[C@@H](NC(=O)[C@H](CC(N)=O)NC(=O)[C@H](CCSC)NC(=O)[C@H](CCC(=O)O)NC(=O)[C@H](CC(=O)O)NC(=O)[C@H](CO)NC(=O)[C@H](Cc1ccccc1)NC(=O)[C@H](CO)NC(=O)CNC(=O)[C@H](CC(=O)O)NC(=O)[C@H](C)NC(=O)[C@@H](N)Cc1cnc[nH]1)[C@@H](C)O)[C@@H](C)CC)C(=O)N[C@@H](CC(N)=O)C(=O)N[C@@H](Cc1c[nH]c2ccccc12)C(=O)N[C@@H](CC(C)C)C(=O)N[C@H](C(=O)N[C@@H](CCC(N)=O)C(=O)N[C@H](C(=O)N[C@@H](CCCCN)C(=O)N[C@H](C(=O)N[C@H](C(=O)N[C@@H](CC(=O)O)C(=O)O)[C@@H](C)O)[C@@H](C)CC)[C@@H](C)O)[C@@H](C)CC |  |  | 71% |  |  |  | 
CCCCC(NC(=O)[C@H](CCC(=O)O)NC(=O)[C@H](CC(=O)O)NC(=O)[C@H](CO)NC(=O)[C@H](Cc1ccccc1)NC(=O)[C@H](CO)NC(=O)CNC(=O)[C@H](CC(=O)O)NC(=O)CNC(=O)[C@@H](N)Cc1cnc[nH]1)C(=O)N[C@@H](CC(N)=O)C(=O)N[C@H](C(=O)N[C@H](C(=O)N[C@@H](CC(C)C)C(=O)N[C@@H](CC(=O)O)C(=O)N[C@@H](CC(N)=O)C(=O)N[C@@H](CC(C)C)C(=O)N[C@@H](C)C(=O)N[C@@H](C)C(=O)N[C@@H](CCCNC(=N)N)C(=O)N[C@@H](CC(=O)O)C(=O)N[C@@H](Cc1ccccc1)C(=O)N[C@H](C(=O)N[C@@H](CC(N)=O)C(=O)N[C@@H](Cc1c[nH]c2ccccc12)C(=O)N[C@@H](CC(C)C)C(=O)N[C@H](C(=O)N[C@@H](CCC(N)=O)C(=O)N[C@H](C(=O)N[C@H](CCCCN)C(N)=O)[C@@H](C)O)[C@@H](C)CC)[C@@H](C)CC)[C@@H](C)CC)[C@@H](C)O (stereo not given in full) | > 1000 nM | inactive |  | 0.38 nM | 1.7 |  | > 2600
